Experimental data: patent publication US20090247646A1, “USE OF RESVERATROL AND DERIVATIVES THEREOF FOR PROMOTING THE WELLNESS STATE IN MAMMALS” (priority 2006, published 2009)

Test system: gene expression in heart tissue
Assay: Genome-wide gene expression in heart tissue of old mice fed a resveratrol-supplemented diet (Affymetrix Mouse Genome 430 2.0 array)
Assay type: in vivo

Measured: Effect of resveratrol on changeing gene expression from old to young profile

Oc1ccc(/C=C/c2cc(O)cc(O)c2)cc1 [resveratrol, 3,4′,5-Trihydroxy-trans-stilbene]
>100%: 1415741_at TPA regulated locus | 1416113_at FK506 binding protein 8 | 1416167_at peroxiredoxin 4 | 1416647_at branched chain ketoacid dehydrogenase E1, alpha polypeptide | 1416648_at dynein, cytoplasmic, heavy chain 1 | 1416698_a_at CDC28 protein kinase 1 | 1416800_at transient receptor potential cation channel, subfamily M, member 7 | 1417149_at procollagen-proline, 2-oxoglutarate 4-dioxygenase (proline 4-hydroxylase), alpha II polypeptide | 1417502_at transmembrane 4 superfamily member 2 | 1417628_at suppressor of Ty 6 homolog (S. cerevisiae) | 1417947_at proliferating cell nuclear antigen | 1417968_a_at methyl-CpG binding domain protein 1 | 1417982_at insulin induced gene 2 | 1418128_at adenylate cyclase 6 | 1418468_at annexin A11 | 1418509_at carbonyl reductase 2 | 1418524_at pericentriolar material 1 | 1418595_at plasma membrane associated protein, S3-12 | 1418648_at EGL nine homolog 3 (C. elegans) | 1418663_at multiple PDZ domain protein | 1418706_at solute carrier family 38, member 3 | 1419034_at casein kinase II, alpha 1 polypeptide | 1419220_at cardiomyopathy associated 1 | 1419665_a_at nuclear protein 1 | 1420620_a_at ring finger protein 13 | 1420727_a_at trimethyllysine hydroxylase, epsilon | 1420834_at vesicle-associated membrane protein 2 | 1420896_at synaptosomal-associated protein 23 | 1420899_at RAB18, member RAS oncogene family | 1420920_a_at ADP-ribosylation factor 1 | 1421468_at potassium inwardly-rectifying channel, subfamily J, member 3 | 1422452_at Bcl2-associated athanogene 3 | 1422799_at HLA-B associated transcript 2 | 1423040_at basic leucine zipper and W2 domains 1 | 1423126_at ATPase, Na+/K+ transporting, beta 3 polypeptide | 1423220_at eukaryotic translation initiation factor 4E | 1423474_at topoisomerase (DNA) I | 1423607_at lumican | 1423845_at expressed sequence AI481750 | 1423898_a_at gene trap locus 6 | 1424164_at mitochondrial ribosomal protein L50 | 1425022_at ubiquitin specific protease 3 | 1425281_a_at delta sleep inducing peptide, immunoreactor | 1425507_at ADP-ribosylation factor related protein 1 | 1425977_a_at serine/threonine kinase 2 | 1426440_at dehydrogenase/reductase (SDR family) member 7 | 1426613_a_at U2 small nuclear ribonucleoprotein B | 1427006_at guanine nucleotide releasing factor 2 | 1427036_a_at eukaryotic translation initiation factor 4, gamma 1 | 1427045_at synaptopodin | 1427245_at ADP-ribosylation factor GTPase activating protein 1 | 1427874_at zinc finger protein 313 | 1429186_a_at cytidine and dCMP deaminase domain containing 1 | 1431054_at LSM6 homolog, U6 small nuclear RNA associated (S. cerevisiae) | 1433558_at disabled homolog 2 (Drosophila) interacting protein | 1433811_at myeloid/lymphoid or mixed lineage-leukemia translocation to 6 homolog (Drosophila) | 1433890_a_at HLA-B-associated transcript 3 | 1433904_at BCL2-antagonist/killer 1 | 1434930_at two pore channel 1 | 1434944_at dystrophia myotonica kinase, B15 | 1435472_at kringle containing transmembrane protein | 1435658_at solute carrier family 27 (fatty acid transporter), member 1 | 1435664_at zinc finger protein 397 | 1436960_at bromodomain containing 3 | 1437892_at Mus musculus transcribed sequences | 1444089_at spectrin beta 2 | 1445186_at stanniocalcin 2 | 1448119_at 2,3-bisphosphoglycerate mutase | 1448185_at homocysteine-inducible, endoplasmic reticulum stress-inducible, ubiquitin-like domain member 1 | 1448277_at polymerase (DNA directed), delta 2, regulatory subunit | 1448307_at Down syndrome critical region homolog 2 (human) | 1448424_at frizzled-related protein | 1448703_at LSM8 homolog, U6 small nuclear RNA associated (S. cerevisiae)
